The nature of this series: Particle size analysis, Malvern particle size analyzer (Mastersizer 3000). It is filed as physicochemical. Particulars: particle size distribution d90 of the isolated batch; dispersant water, Tween-80 paste, Mie model. The protocol: Particle size analysis was performed using a Malvern particle size analyzer. (Mastersizer 3000, Malvern Instrument Ltd).
Weigh accurately 100 mg of sample in 100 ml beaker. Add 3 drops of Tween-80 and 1 mL of water and make a paste with the help of glass rod. Then add 10 ml water and sonicate externally for 10 seconds with continued shaking.

Several values for one entry are separate records, joined by “and”; a condition that tells them apart may be missing. Equal values may be shown once.

From patent US20250051357A1, “SOLID FORMS OF A GPR119 AGONIST AND PROCESSES FOR THE PREPARATION THEREOF” (MANKIND PHARMA LTD., priority 2023, published 2025) come the findings set out here.

`CCc1cnc(N2CCC([C@H](C)Oc3nn4cc(-c5ccc(S(C)(=O)=O)cc5F)nc4s3)CC2)nc1` [Form M-1, 2-((S)-1-(1-(5-ethyl-pyrimidin-2-yl)piperidin-4-yl)ethoxy)-6-(2-fluoro-4-(methylsulfonyl)phenyl) imidazo[2,1-b][1,3,4]thiadiazole]: the “PSD (d90)” value was 84.9 μm and 62.4 μm and 106 μm.

With `CCc1cnc(N2CCC([C@H](C)Oc3nn4cc(-c5ccc(S(C)(=O)=O)cc5F)nc4s3)CC2)nc1` [Form M-2, 2-((S)-1-(1-(5-ethyl-pyrimidin-2-yl)piperidin-4-yl)ethoxy)-6-(2-fluoro-4-(methylsulfonyl)phenyl) imidazo[2,1-b][1,3,4]thiadiazole], the “PSD (d90)” value turned out to be 99.8 μm. With `CCc1cnc(N2CCC([C@H](C)Oc3nn4cc(-c5ccc(S(C)(=O)=O)cc5F)nc4s3)CC2)nc1` [Form M-4, 2-((S)-1-(1-(5-ethyl-pyrimidin-2-yl)piperidin-4-yl)ethoxy)-6-(2-fluoro-4-(methylsulfonyl)phenyl) imidazo[2,1-b][1,3,4]thiadiazole] the figure was 30-60 μm; with `CCc1cnc(N2CCC([C@H](C)Oc3nn4cc(-c5ccc(S(C)(=O)=O)cc5F)nc4s3)CC2)nc1` [amorphous Form, 2-((S)-1-(1-(5-ethyl-pyrimidin-2-yl)piperidin-4-yl)ethoxy)-6-(2-fluoro-4-(methylsulfonyl)phenyl) imidazo[2,1-b][1,3,4]thiadiazole], 50-80 μm.
